Several values for one entry are separate records, joined by “and”; a condition that tells them apart may be missing. Equal entries are not always repeated. Inconclusive results and toxic doses are left out. Cut-off read from the data, not from the text of the source: active = T/C of 150% or more; inactive = T/C below 125%.
Test system: L1210 leukemia ip in BDF1 mice, survival T/C
Assay: NCI In Vivo Anticancer Drug Screen. Data for tumor model L1210 Leukemia (intraperitoneal) in B6D2F1 (BDF1) mice
Details: endpoint: mean survival time, higher = longer survival
In short: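 Antitumor effect is assessed in tumor-bearing animals. Survival in the compound arm is compared with a vehicle-dosed control arm and expressed as their quotient.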

[1] = dose: 100.0 mg/kg/injection, schedule: Q01DX001 (ip), vehicle: saline
[2] = dose: 200.0 mg/kg/injection, schedule: Q01DX001 (ip), vehicle: saline
[3] = dose: 100.0 mg/kg/injection, schedule: Q01DX001 (ip), vehicle: carboxymethylcellulose (CMC)
[4] = dose: 200.0 mg/kg/injection, schedule: Q01DX001 (ip), vehicle: carboxymethylcellulose (CMC)
[5] = dose: 100.0 mg/kg/injection, schedule: Q01DX009 (ip), vehicle: Klucel (hydroxypropylcellulose) (HPC)
[6] = dose: 200.0 mg/kg/injection, schedule: Q01DX009 (ip), vehicle: Klucel (hydroxypropylcellulose) (HPC)
[7] = dose: 400.0 mg/kg/injection, schedule: Q01DX009 (ip), vehicle: Klucel (hydroxypropylcellulose) (HPC)
[8] = dose: 400.0 mg/kg/injection, schedule: Q01DX001 (ip), vehicle: saline
[9] = dose: 100.0 mg/kg/injection, schedule: Q04DX003 (ip), vehicle: Klucel (hydroxypropylcellulose) (HPC)
[10] = dose: 200.0 mg/kg/injection, schedule: Q04DX003 (ip), vehicle: Klucel (hydroxypropylcellulose) (HPC)
[11] = dose: 400.0 mg/kg/injection, schedule: Q04DX003 (ip), vehicle: Klucel (hydroxypropylcellulose) (HPC)
[12] = dose: 50.0 mg/kg/injection, schedule: Q01DX001 (ip), vehicle: saline
[13] = dose: 100.0 mg/kg/injection, schedule: Q01DX009 (ip), vehicle: saline with Tween-80
[14] = dose: 200.0 mg/kg/injection, schedule: Q01DX009 (ip), vehicle: saline with Tween-80

Measured: T/C

Oc1cccc2ccc3cccc(O)c3c12
inactive: dose: 100.0 mg/kg/injection, schedule: Q04DX003 (ip), vehicle: alcohol 100 % of control | dose: 200.0 mg/kg/injection, schedule: Q04DX003 (ip), vehicle: alcohol 93 % of control

Cc1c(CBr)c(=O)[nH]c2ccccc12
inactive: [1] 100 % of control | [2] 98 % of control

N#Cc1cccc(C(=O)Cl)c1
inactive: dose: 25.0 mg/kg/injection, schedule: Q01DX009 (ip), vehicle: carboxymethylcellulose (CMC) 95 % of control and 96 % of control | dose: 50.0 mg/kg/injection, schedule: Q01DX009 (ip), vehicle: carboxymethylcellulose (CMC) 100 % of control and 89 % of control | [3] 92 % of control | dose: 100.0 mg/kg/injection, schedule: Q01DX009 (ip), vehicle: carboxymethylcellulose (CMC) 92 % of control and 95 % of control and 96 % of control | dose: 100.0 mg/kg/injection, schedule: Q04DX002 (ip), vehicle: carboxymethylcellulose (CMC) 95 % of control and 89 % of control | dose: 100.0 mg/kg/injection, schedule: Q04DX003 (ip), vehicle: carboxymethylcellulose (CMC) 96 % of control and 100 % of control | [4] 92 % of control and 98 % of control | dose: 200.0 mg/kg/injection, schedule: Q04DX002 (ip), vehicle: carboxymethylcellulose (CMC) 95 % of control | dose: 200.0 mg/kg/injection, schedule: Q04DX003 (ip), vehicle: carboxymethylcellulose (CMC) 96 % of control and 100 % of control | dose: 400.0 mg/kg/injection, schedule: Q04DX003 (ip), vehicle: carboxymethylcellulose (CMC) 91 % of control

CCCC(CCN1CCCC1)(CNC(=O)CN(CC)CC)c1cccc2ccccc12 (configuration not stated)
inactive: dose: 25.0 mg/kg/injection, schedule: Q04DX003 (ip), vehicle: saline 103 % of control | dose: 50.0 mg/kg/injection, schedule: Q04DX003 (ip), vehicle: saline 104 % of control | dose: 100.0 mg/kg/injection, schedule: Q04DX003 (ip), vehicle: saline 106 % of control

CS(=O)(=O)OCC1CC=CCC1COS(C)(=O)=O (configuration not stated)
inactive: [5] 96 % of control | [6] 102 % of control | [7] 94 % of control

CN1C(=O)C(Br)C(C)(Br)c2ccccc21 (configuration not stated)
inactive: [1] 93 % of control | [2] 101 % of control | [8] 92 % of control

O=[N+]([O-])c1cc(Cl)cc2c1nc(NCCCO)c1ccccc12
inactive: [9] 105 % of control | [10] 108 % of control | [11] 102 % of control

COC(=O)c1ccc(N=Nc2ncc(CCNC(=O)C(F)(F)F)[nH]2)cc1
inactive: dose: 100.0 mg/kg/injection, schedule: Q01DX001 (ip), vehicle: saline with Tween-80 97 % of control | dose: 200.0 mg/kg/injection, schedule: Q01DX001 (ip), vehicle: saline with Tween-80 96 % of control | dose: 400.0 mg/kg/injection, schedule: Q01DX001 (ip), vehicle: saline with Tween-80 111 % of control

Oc1ccccc1-n1c(-c2ccccc2)ccc1-c1ccccc1
inactive: [12] 90 % of control | [1] 98 % of control | [2] 102 % of control | [8] 98 % of control

CC(=O)Nc1ccc2c(c1)C(NC(=O)/C=C\C(=O)O)c1ccccc1-2 (configuration not stated)
inactive: dose: 100.0 mg/kg/injection, schedule: Q04DX003 (ip), vehicle: saline with Tween-80 111 % of control | dose: 200.0 mg/kg/injection, schedule: Q04DX003 (ip), vehicle: saline with Tween-80 98 % of control | dose: 400.0 mg/kg/injection, schedule: Q04DX003 (ip), vehicle: saline with Tween-80 107 % of control

CC(=O)Nc1ccc(C#N)c2ccccc12
inactive: [5] 97 % of control | [9] 102 % of control | [6] 98 % of control | [10] 102 % of control | [7] 103 % of control | [11] 97 % of control

CCOC(=O)C(CC(C)C)NC(=O)CCCCSc1ncnc2nc[nH]c12 (configuration not stated)
inactive: dose: 25.0 mg/kg/injection, schedule: Q01DX009 (ip), vehicle: saline with Tween-80 110 % of control | dose: 25.0 mg/kg/injection, schedule: Q01DX009 (oral), vehicle: saline with Tween-80 100 % of control | dose: 50.0 mg/kg/injection, schedule: Q01DX009 (ip), vehicle: saline with Tween-80 112 % of control | dose: 50.0 mg/kg/injection, schedule: Q01DX009 (oral), vehicle: saline with Tween-80 92 % of control | [13] 100 % of control | dose: 100.0 mg/kg/injection, schedule: Q01DX009 (oral), vehicle: saline with Tween-80 100 % of control | [14] 98 % of control | dose: 200.0 mg/kg/injection, schedule: Q01DX009 (oral), vehicle: saline with Tween-80 98 % of control | dose: 400.0 mg/kg/injection, schedule: Q01DX009 (ip), vehicle: saline with Tween-80 115 % of control | dose: 400.0 mg/kg/injection, schedule: Q01DX009 (oral), vehicle: saline with Tween-80 107 % of control | dose: 800.0 mg/kg/injection, schedule: Q01DX009 (oral), vehicle: saline with Tween-80 111 % of control

O=C1CCc2c1cc(O)c1ccc(S(=O)(=O)O)cc21
inactive: dose: 5.0 mg/kg/injection, schedule: Q01DX001 (ip), vehicle: saline 104 % of control | dose: 10.0 mg/kg/injection, schedule: Q01DX001 (ip), vehicle: saline 106 % of control | dose: 20.0 mg/kg/injection, schedule: Q01DX001 (ip), vehicle: saline 104 % of control | dose: 40.0 mg/kg/injection, schedule: Q01DX001 (ip), vehicle: saline 102 % of control

O=C(CCCC(=O)NNC(=O)Nc1cccc([N+](=O)[O-])c1)NNC(=O)Nc1cccc([N+](=O)[O-])c1
inactive: [12] 102 % of control | [1] 102 % of control | [2] 96 % of control | [8] 102 % of control

O=P(c1ccccc1)(c1ccccc1)C1(O)CCCCC1Cl (configuration not stated)
inactive: [1] 105 % of control | [2] 96 % of control | [8] 100 % of control

CC(=O)N(C)c1ccc(S(=O)(=O)Cl)cc1
inactive: [13] 101 % of control | [14] 95 % of control

CCSCCOc1c(C(C)(C)C)cc([N+](=O)[O-])c(C)c1[N+](=O)[O-]
inactive: dose: 100.0 mg/kg/injection, schedule: Q04DX002 (ip), vehicle: saline 103 % of control | dose: 200.0 mg/kg/injection, schedule: Q04DX002 (ip), vehicle: saline 100 % of control | dose: 400.0 mg/kg/injection, schedule: Q04DX002 (ip), vehicle: saline 106 % of control

O=[N+]([O-])c1ccc(C(Cl)C2(Br)C=c3ccccc3=C2)cc1 (configuration not stated)
inactive: [5] 103 % of control | [9] 105 % of control | [6] 98 % of control | [10] 94 % of control | [7] 95 % of control | [11] 97 % of control

COC1CC(OC2C(C)C(=O)OC(C)C(C)C(OC(C)=O)C(C)C(=O)C3(CO3)CC(C)C(OC3OC(C)CC(N(C)C)C3OC(C)=O)C2C)OC(C)C1OC(C)=O (configuration not stated)
inactive: [3] 108 % of control | [4] 113 % of control | dose: 400.0 mg/kg/injection, schedule: Q01DX001 (ip), vehicle: carboxymethylcellulose (CMC) 108 % of control

O=C(Nc1ccc(Br)cc1)Oc1ccc(-c2ccccc2)cc1
inactive: dose: 50.0 mg/kg/injection, schedule: Q01DX009 (ip), vehicle: Klucel (hydroxypropylcellulose) (HPC) 95 % of control | [5] 95 % of control and 91 % of control | [6] 90 % of control | [7] 86 % of control and 87 % of control
